Measured values reported in patent publication US9085795B2, “Methods for screening candidate agents for modulating prorenin and renin, assays for detecting prorenin and antibodies” (MOLECULAR INNOVATIONS, INC., priority 2009, dated 2015).
“And” between values parts separate entries of the source, which are not always exact repeats. Identical values can stand only once. Like-named read-outs stand apart in the source and are kept apart here. No end group written: not given here. *: point of attachment. Biotin = O=C1N[C@H]2[C@H](CS[C@H]2CCCCC(=O)*)N1

Columns and labels:
[1] = system: monoclonal antibody 4B5-E3; conditions: peptides bound to avidin coated plates at 1 μg/ml, absorbance at 450 nm
Experimental: Cell supernatants were loaded on an IMMULON™ (Thermo Fisher Scientific Inc., Waltham, Mass.) strip plate coated with prorenin and blocked. […] Strips were then washed three times, and developed with TMB 1 (Kirkegaard & Perry Laboratories, Inc., Gaithersburg, Md.) substrate for 5 minutes; solution was quenched with 1N H2SO4. The IMMULON™ plate was read on a microtiter plate spectrophotometer with a set absorbance at 450 nm. Optical density (OD) measurements higher than 3.0 were considered positive clones.
These four peptides were bound to avidin coated plates at a concentration of 1 μg/ml and purified monoclonal 4B5-E3 binding was determined per the screening procedure described earlier.

renin = biological target: T1, renin (Homo sapiens, UniProt P00797); test: Renin activity assay: cleavage of biotin-[…] by renin, detected with the antibody of the invention on avidin-coated plate; format: biochemical; conditions: Renin at 10 ug/ml, aliskiren at 10X excess molar conc.
T1 construct: Renin is produced by cleavage of the 395 amino acid zymogen prorenin
T1 sequence (P00797 67-406): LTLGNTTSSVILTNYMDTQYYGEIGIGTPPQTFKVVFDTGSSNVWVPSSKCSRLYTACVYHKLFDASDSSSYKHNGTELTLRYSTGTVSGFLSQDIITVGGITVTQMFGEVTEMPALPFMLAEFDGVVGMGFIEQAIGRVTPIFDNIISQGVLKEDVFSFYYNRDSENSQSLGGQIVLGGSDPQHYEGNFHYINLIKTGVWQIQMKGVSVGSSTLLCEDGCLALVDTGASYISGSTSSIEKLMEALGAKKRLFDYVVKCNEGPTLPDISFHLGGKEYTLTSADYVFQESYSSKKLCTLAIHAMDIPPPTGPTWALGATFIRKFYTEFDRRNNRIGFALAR
Experimental: In accordance with the invention, renin was preincubated in the presence and absence of aliskiren, a known renin inhibitor for approximately 2 hours at 37° C. in 50 mM HEPES, 2 mM EDTA, 1% DMA, 0.5% BSA, pH 7.0. This mixture of renin +/−aliskiren was then contacted with biotin-[…] and incubated at 37° C. for approximately eighteen hours. The reaction mixture was then added to an avidin-coated microtiter plate and allowed to adhere thereto for 30 minutes at room temperature and then washed three times with wash buffer, containing 10 mM Tris, 150 mM NaCl, 0.1% BSA and 0.05% Tween. Then 100 μl of the antibody of the invention was added to each well of the microtiter plate and incubated for 30 minutes at room temperature and again washed with wash buffer. Then 100 μl of horse radish peroxidase conjugated goat anti-mouse subclass Fc was added to each well, incubated for 30 minutes at room temperature and washed with wash buffer. Then 100 μl of TMB ONE Solution™, available from Promega Corporation of Madison, Wis., was added to all wells, incubated for five minutes at room temperature. The reaction was stopped with 50 μl 1N H2SO4 and read at 450 nm.

Biotin-RLGPEWSQPMKR [Peptide 4.2]
binding of peptide to monoclonal antibody 4B5-E3 [1]: Biotin-RLGPEWSQPMKR (binds monoclonal)

Biotin-ARLGPEW [Peptide 4.6]
binding of peptide to monoclonal antibody 4B5-E3 [1]: does not bind monoclonal

Biotin-LGPEWSQPMKR [Peptide 4.3]
binding of peptide to monoclonal antibody 4B5-E3 [1]: Biotin-LGPEWSQPMKR (does not bind monoclonal)

Biotin-GVDMARLGPEWSQPMKR [Peptide 4]
binding of peptide to monoclonal antibody 4B5-E3 [1]: Biotin-GVDMARLGPEWSQPMKR (binds monoclonal) | binding of peptide to monoclonal antibody 4B5-E3 ([1]; listed as peptide 4): positive result

COCCCOc1cc(C[C@@H](C[C@H](N)[C@@H](O)C[C@H](C(=O)NCC(C)(C)C(N)=O)C(C)C)C(C)C)ccc1OC [aliskiren]
inhibition of cleavage of the substrate peptide by renin (renin): inhibition of cleavage of the substrate peptide by renin | signal read at 450 nM (uncleaved substrate peptide), renin + inhibitor (renin; preincubated approximately 2 hours at 37° C., substrate approximately eighteen hours): 3.363 and 3.481 and 3.596 and 3.824 and 3.754 and 3.497

Biotin-ARLGPEWS [Peptide 4.5]
binding of peptide to monoclonal antibody 4B5-E3 [1]: binds monoclonal | binding of peptide to monoclonal antibody 4B5-E3 ([1]; listed as ARLGPEWS): bound to the monoclonal antibody

Biotin-ARLGPEWSQ [Peptide 4.4]
binding of peptide to monoclonal antibody 4B5-E3 [1]: binds monoclonal | binding of peptide to monoclonal antibody 4B5-E3 ([1]; listed as ARLGPEWSQ): bound to the monoclonal antibody

Biotin-ARLGPEWSQPMKR [Peptide 4.1]
binding of peptide to monoclonal antibody 4B5-E3 [1]: Biotin-ARLGPEWSQPMKR (binds monoclonal)
